{
  "source": "patent US20110293530A1",
  "about": "“Methods and Compositions for Using Bleomycin-Derivatized Microbubbles” (ARIZONIA BOARD OF REGENTS, priority 2008, published 2011)",
  "key": {"[1]": {"tested_on": "MCF-10A 'normal' human breast cells", "test": "microbubble attachment to cells, parallel plate flow chamber", "format": "cell-based", "conditions": "MCF-10A 'normal' breast cells; 400×; FIGS. 5, 9-11", "procedure": "(§1) To create biotinylated microbubbles, the synthesized biotin-bleomycin A5 ligand was conjugated to Targestar^B Targeted Ultrasound Contrast Agent (Targeson). Four hundred microliters of Coupling Reagent (Targeson) were added to 1.5 mL of conjugated Targestar^B microbubbles and incubated for 20 min at room temperature, with gentle agitation every 5 min. The product was divided into two syringes, rinsed with 1.75 mL of Infusion Buffer, and then centrifuged for 3 min at 400×g (10° C.). The infranatant was then drained to 1 mL. Fifty μL of biotinylated bleomycin A5 was added to one of the vials and both were incubated at room temperature for 20 min with gentle agitation every 5 min. To each sample was added 1.75 mL of Infusion Buffer before centrifugation for 3 min at 400×g (10° C.). This solution was then drained to 1.0 mL before recovery of the supernatant and repetition of the previous step. Finally, the supernatant was resuspended in Infusion Buffer to a final volume of 2.0 mL.\nAttachment of the biotinylated microbubble to the cultured MCF-7 breast cancer cells was imaged using an inverted microscope Zeiss Axiovert 200M fitted with an AxioCam MRm camera. Adherent cancer cells on glass cover slips were assembled into a parallel plate flow chamber (Bioptechs FCS2, Micro-Environmental Systems) with a constant temperature maintained at 37° C. […]"}, "[2]": {"tested_on": "MCF-7 human breast carcinoma cells", "test": "microbubble attachment to cells, parallel plate flow chamber", "format": "cell-based", "conditions": "400×", "procedure": "MCF-7 human breast carcinoma cells (ATCC, Manassas, Va.) were grown on sterile glass cover slips (40 mm) and incubated at 37° C. until they reached 40-60% confluency in a 5% fetal bovine serum/RPMI1640 medium solution.\nas §1\nAttachment of the biotinylated microbubble to the cultured MCF-7 breast cancer cells was imaged using an inverted microscope Zeiss Axiovert 200M fitted with an AxioCam MRm camera. Adherent cancer cells on glass cover slips were assembled into a parallel plate flow chamber (Bioptechs FCS2, Micro-Environmental Systems) with a constant temperature maintained at 37° C. The prepared solution of biotinylated microbubbles was introduced into the parallel plate flow chamber via ⅛-inch diameter tubing (Silastic) at a controlled rate of 0.01 mL/min using an adjustable infusion-withdrawal syringe pump (Harvard Apparatus, Holliston, Mass.). A negative control experiment was performed using a preparation of Targestar^B microbubbles without any added biotin-bleomycin A5 ligand. ‘Normal’ human breast MCF-10A cells were used as well for comparison purposes. […]"}},
  "note": "Entries after “also recorded” stand apart in the source; their conditions may differ.",
  "data": [
    {"substance": "biotinylated bleomycin A5 [Biotinylated BLM A5]", "values": [
      {"measurement": "Targestar B microbubble attachment to cells (microscopy, in words)", "setting": "[1]", "result": "attachment was not observed"},
      {"measurement": "Targestar B microbubble attachment to cells (microscopy, in words)", "setting": "[2]; FIGS. 3, 4, 6-8, listed as biotinylated BLM A5", "result": "selective attachment"},
      {"measurement": "Targestar B microbubble attachment to cells (microscopy, in words)", "setting": "[2]; FIGS. 3, 4, 6-8, listed as biotinylated bleomycin", "result": "did promote attachment"}
    ]},
    {"substance": "biotinylated deglycobleomycin A5", "values": [
      {"measurement": "Targestar B microbubble attachment to cells (microscopy, in words)", "setting": "[1]", "result": "does not promote Targestar B microbubble attachment; also recorded: lack of attachment"},
      {"measurement": "Targestar B microbubble attachment to cells (microscopy, in words)", "setting": "[2]; FIGS. 3, 4, 6-8", "result": "does not promote Targestar B microbubble attachment; also recorded: did not reveal the presence of microbubbles attached"}
    ]}
  ]
}
